In patent US12479792B2, “Compositions of chelating molecules” (The Regents of the University of California, priority 2016, dated 2025):

Tests used:
[1] = Eu(III) complex formation constants by incremental spectrophotometric titration; type: binding
Experimental: (§1) Metal, Chelator Solutions. The trivalent lanthanide Ln(III) working stock solutions were prepared in standardized 0.1 M HCl. A Zr(IV) stock solution was prepared by dissolving ZrCl4 in 3.0 M H2SO4, to prevent hydrolysis. The metal salt ZrCl4 was handled and stored in a glovebox kept under inert atmosphere. The Zr(IV) stock solution was standardized against EDTA, with xylene orange as the indicator (Welcher, F. J. The analytical uses of ethylenediamine tetraacetic acid; 1958). A Th(IV) stock solution was prepared in 0.1 M H2SO4. Stock solutions (4 mM) of Ent, and 3,4,3-LI(CAM) were prepared by direct dissolution of a weighed portion of chelator in DMSO and aliquots were removed prior to each set of experiments.
(§2) Solution Thermodynamics. All titrant solutions were degassed by boiling for 1 h while being purged under Ar. Carbonate-free 0.1 M KOH was prepared from concentrate (J.T Baker Dilut-It) and was standardized by titrating against 0.1 M potassium hydrogen phthalate (99.95%, Sigma Aldrich). Solutions of 0.1 M HCl were similarly prepared and were standardized by titrating against TRIS (99.9%, J.T. Baker). The glass electrode (Metrohm-Micro Combi-response to [H+]) used for the pH measurements was calibrated at 25.0° C. and at an ionic strength of 0.1 M (KCl) before each potentiometric or spectrophotometric titration. The calibration data were analyzed using the program GLEE (Gans & O'Sullivan, Talanta, 2000, 51 (1): 33-37) to refine for the E° and slope. All thermodynamic measurements were conducted at 25.0° C., in 0.1 M KCl supporting electrolyte under positive Ar gas pressure. The automated titration system was controlled by an 867 pH Module (Metrohm). […]
(§3) Incremental Spectrophotometric Titrations. […] For the 3,4,3-LI(CAM) protonation (and Eu(III)-3,4,3-LI(CAM) complexes), titrations were performed with an initial concentration of 50 μM of 3,4,3-LI(CAM) (and 50 μM of Eu(III)) resulting in absorbance values included between 0 and 1.0 throughout the titration. […]

[2] = Th(IV) complex formation constants by spectrophotometric competition titration in the presence of DTPA; type: binding
Experimental: as §1, §2, §3

[3] = Zr(IV) complex formation constants by spectrophotometric competition titration in the presence of DTPA; type: binding
Experimental: as §1, §2, §3

[4] = Abergel et al., Inorganic chemistry 2009; given for comparison; cited from earlier work
[5] = same conditions; Abergel et al., Inorganic chemistry 2009; cited from earlier work
[6] = Deblonde et al. 2013; Sturzbecher-Hoehne et al. 2015; cited from earlier work

| SMILES | log β110, stability constant of Eu(III) complex ([1]; I=0.1 M (KCl), T=25° C.) | only Eu(III) species present at pH 7.4 ([1]; pH 7.4, speciation diagram, 1 equivalent of Eu(III)) | pH at which Eu(III) complexation starts ([1]; speciation diagram, 1 equivalent of Eu(III), [Eu]=[CAM]=10 μM, T=25° C., I=0.1 M, Hyss) | log β110, stability constant of Th(IV) complex ([2]; I=0.1 M (KCl), T=25° C.) | predominant Th(IV) species at physiological pH ([2]; pH 7.4, speciation diagram, 1 equivalent of Th(IV)) | pH at which Th(IV) complexes start forming ([2]; speciation diagram, 1 equivalent of Th(IV), [Th]=[CAM]=10 μM, T=25° C., I=0.1 M, Hyss) | log β110, stability constant of Zr(IV) complex ([3]; I=0.1 M (KCl), T=25° C.) | predominant Zr(IV) species at physiological pH ([3]; pH 7.4, speciation diagram, 1 equivalent of Zr(IV)) | pH at which Zr(IV) complexes start forming ([3]; speciation diagram, 1 equivalent of Zr(IV), [Zr]=[CAM]=10 μM, T=25° C., I=0.1 M, Hyss) | overall acidity ΣpKa5-8 [4] | pH at which Eu(III) species already appear [5] | pH at which 4+ metal complexes are formed [6] |
| --- | --- | --- | --- | --- | --- | --- | --- | --- | --- | --- | --- | --- |
| O=C(NCCCN(CCCCN(CCCNC(=O)c1cccc(O)c1O)C(=O)c1cccc(O)c1O)C(=O)c1cccc(O)c1O)c1cccc(O)c1O [3,4,3-LI(CAM)] | 29.7 | [Eu^IIILH]^4− | 5 | 47.7 | [MIVLH]^3− and [MIVL]^4− | ~3 | 57.3 | [MIVLH]^3− and [MIVL]^4− | ~3 | – | – | – |
| O=C(NCCCN(CCCCN(CCCNC(=O)c1cccc(=O)n1O)C(=O)c1cccc(=O)n1O)C(=O)c1cccc(=O)n1O)c1cccc(=O)n1O [3,4,3-LI(1,2-HOPO)] | – | – | – | – | – | – | – | – | – | 21.2 | 1 | < 0 |
